Reference: patent US20260242352A1, “INHIBITION OF SHIP1 AS A THERAPEUTIC STRATEGY FOR THE TREATMENT OF ALZHEIMER'S DISEASE” (The Trustees of Indiana University, priority 2022, published 2026)

Target: T1, HiBit-labeled full length SHIP1 protein (Homo sapiens, UniProt Q92835)
T1 construct: thermal stability of a HiBit-labeled full length SHIP1 protein in intact cells; expressed in transfected cells; host or cells: HMC3 (stably transfected)
T1 sequence (Q92835 1-1189): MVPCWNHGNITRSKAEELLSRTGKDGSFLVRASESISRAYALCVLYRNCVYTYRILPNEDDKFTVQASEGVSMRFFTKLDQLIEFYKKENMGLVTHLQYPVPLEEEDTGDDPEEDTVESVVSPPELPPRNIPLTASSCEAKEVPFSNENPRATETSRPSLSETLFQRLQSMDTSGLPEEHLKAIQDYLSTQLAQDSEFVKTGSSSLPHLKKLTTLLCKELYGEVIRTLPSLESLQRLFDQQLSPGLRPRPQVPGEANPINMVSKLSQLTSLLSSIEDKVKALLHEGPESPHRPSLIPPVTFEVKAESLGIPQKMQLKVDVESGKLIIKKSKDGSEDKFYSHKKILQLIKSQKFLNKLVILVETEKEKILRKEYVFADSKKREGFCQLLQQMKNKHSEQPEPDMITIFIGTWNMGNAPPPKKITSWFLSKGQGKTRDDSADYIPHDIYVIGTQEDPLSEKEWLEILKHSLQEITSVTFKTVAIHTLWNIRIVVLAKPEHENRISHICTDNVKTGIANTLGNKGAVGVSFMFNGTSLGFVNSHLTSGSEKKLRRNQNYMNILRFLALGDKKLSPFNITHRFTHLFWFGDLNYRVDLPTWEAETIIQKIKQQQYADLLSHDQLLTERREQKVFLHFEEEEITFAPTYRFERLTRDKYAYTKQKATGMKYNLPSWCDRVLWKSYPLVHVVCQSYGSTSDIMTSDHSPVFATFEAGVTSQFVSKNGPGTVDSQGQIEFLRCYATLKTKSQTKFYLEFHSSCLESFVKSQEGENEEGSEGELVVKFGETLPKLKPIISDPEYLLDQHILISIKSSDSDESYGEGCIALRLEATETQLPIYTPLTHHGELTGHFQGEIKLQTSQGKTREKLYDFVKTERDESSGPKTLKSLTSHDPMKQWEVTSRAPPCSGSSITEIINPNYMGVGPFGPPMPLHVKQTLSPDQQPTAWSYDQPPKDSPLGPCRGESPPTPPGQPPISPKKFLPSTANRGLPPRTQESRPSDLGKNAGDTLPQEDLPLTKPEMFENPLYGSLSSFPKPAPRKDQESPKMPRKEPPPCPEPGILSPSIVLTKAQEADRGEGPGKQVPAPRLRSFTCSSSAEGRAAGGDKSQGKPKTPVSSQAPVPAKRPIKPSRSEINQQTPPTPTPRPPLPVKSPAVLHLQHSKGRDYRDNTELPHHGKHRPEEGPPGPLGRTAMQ
Experiment: Cellular thermal shift assay (SplitLuc CETSA), compound dose response
Assay type: cell-based
Details: HMC3/HiBit-INPP5D cells, 60 min; for CETSA Min Inhibition (%): heated at 44.2° C.; for AC50: heated at 44.2° C. for 3 min, 8-point curve from 80 uM or 100 uM
Description: Cellular thermal shift assay (CETSA). […] This assay was run in the following two formats with HMC3/HiBit-INPP5D stably transfected cells.
2. Compound dose response: run at target Tm (44.2° C. for SHIP1) with compound dosing from 80 uM or 100 uM with 1:3 serial dilutions to generate an 8 point curve. Cells were treated for 60 min before being heated at target Tm for 3 min before luminescence detection. An AC50 was calculated using a four-parameter logistic curve regression model with change at highest concentration noted when difference from control >3SD, otherwise AC50 marked as “nc” for not calculated.
See Martinez et al. (2018) Sci Rep 8: p. 9472; Oh-Hashi et al. (2017) Biochem Biophys Rep 12: pp. 40-45. This assay was run in the following two formats with HMC3/HiBit-INPP5D stably transfected cells.
Compound dose response: run at target Tm (44.2° C. for SHIP1) with compound dosing from 80 uM or 100 uM with 1:3 serial dilutions to generate an 8-point curve. Cells were treated for 60 min before being heated at target Tm for 3 min before luminescence detection. The concentration that induced a half-maximum response (AC50) was calculated using a four-parameter logistic curve regression model with change at highest concentration noted when difference from control >3SD.

For `CC(C)(C)OC(=O)N1CCC(n2cc(-c3cncc(OCc4ccccc4Cl)c3)cn2)CC1` [Compound 1, tert-butyl 4-(4-{5-[(2-chlorophenyl)methoxy]pyridin-3-yl}-1H-pyrazol-1-yl)piperidine-1-carboxylate], the “CETSA Min Inhibition (%)” value was 74.7%.
For `CC(C)(C)OC(=O)N1CCC(n2cc(-c3cncc(OCc4ccccc4F)c3)cn2)CC1` [Compound 2, tert-butyl 4-(4-(5-((2-fluorobenzyl)oxy)pyridin-3-yl)-1H-pyrazol-1-yl)piperidine-1-carboxylate], the “CETSA Min Inhibition (%)” value was 70.6%.
For `Cc1ccccc1COc1cncc(-c2cnn(C3CCN(C(=O)OC(C)(C)C)CC3)c2)c1` [Compound 3, tert-butyl 4-(4-(5-((2-methylbenzyl)oxy)pyridin-3-yl)-1H-pyrazol-1-yl)piperidine-1-carboxylate], the “CETSA Min Inhibition (%)” value was 60.8% and the AC50 was 77 µM.
For `CC(C)(C)OC(=O)N1CCC(n2cc(-c3cncc(OCc4ccccc4)c3)cn2)CC1` [Compound 4, tert-butyl 4-(4-(5-(benzyloxy)pyridin-3-yl)-1H-pyrazol-1-yl)piperidine-1-carboxylate], the “CETSA Min Inhibition (%)” value was 69.2% and the AC50 was > 80 µM.
With `CC(C)(C)OC(=O)N1CCC(n2cc(-c3cncc(OCc4ccc(Br)cc4)c3)cn2)CC1` [Compound 7, tert-butyl 4-(4-(5-((4-bromobenzyl)oxy)pyridin-3-yl)-1H-pyrazol-1-yl)piperidine-1-carboxylate] the “CETSA Min Inhibition (%)” value was 66.3%.
With `Cl.Clc1ccccc1COc1cncc(-c2cnn(C3CCNCC3)c2)c1` [Compound 9, 3-((2-chlorobenzyl)oxy)-5-(1-(piperidin-4-yl)-1H-pyrazol-4-yl)pyridine hydrochloride] the “CETSA Min Inhibition (%)” value was 16.0% and the AC50 was 55 µM.
`Cl.Clc1ccc(COc2cncc(-c3cnn(C4CCNCC4)c3)c2)c(Cl)c1` [Compound 10, 3-((2,4-dichlorobenzyl)oxy)-5-(1-(piperidin-4-yl)-1H-pyrazol-4-yl)pyridine hydrochloride] was tested, and the “CETSA Min Inhibition (%)” value was 10.2% and the AC50 was 53.8 µM.
`CC(C)(C)CCN1CCC(n2cc(-c3cncc(OCc4ccccc4Cl)c3)cn2)CC1` [Compound 15, 3-((2-chlorobenzyl)oxy)-5-(1-(1-(3,3-dimethylbutyl)piperidin-4-yl)-1H-pyrazol-4-yl)pyridine] was tested, and the “CETSA Min Inhibition (%)” value was 66.7%.
With `CC(C)(C)CC(=O)N1CCC(n2cc(-c3cncc(OCc4ccccc4Cl)c3)cn2)CC1` [Compound 16, 1-(4-(4-(5-((2-chlorobenzyl)oxy)pyridin-3-yl)-1H-pyrazol-1-yl)piperidin-1-yl)-3,3-dimethylbutan-1-one] the “CETSA Min Inhibition (%)” value was 64.5% and the AC50 was 79.6 µM.
With `C[C@H](Oc1cncc(-c2cnn(C3CCNCC3)c2)c1)c1ccccc1Cl` [Compound 21, (S)-3-(1-(2-chlorophenyl)ethoxy)-5-(1-(piperidin-4-yl)-1H-pyrazol-4-yl)pyridine] the “CETSA Min Inhibition (%)” value was 24.9% and the AC50 was 54.7 µM.
With `C[C@@H](Oc1cncc(-c2cnn(C3CCNCC3)c2)c1)c1ccccc1Cl` [Compound 22, (R)-3-(1-(2-chlorophenyl)ethoxy)-5-(1-(piperidin-4-yl)-1H-pyrazol-4-yl)pyridine] the “CETSA Min Inhibition (%)” value was 24.6% and the AC50 was 43.4 µM.
In the case of `C[C@@H](Oc1cncc(-c2cnn(C3CCNCC3)c2)c1)c1ccc(Cl)cc1` [Compound 23, (R)-3-(1-(4-chlorophenyl)ethoxy)-5-(1-(piperidin-4-yl)-1H-pyrazol-4-yl)pyridine], the “CETSA Min Inhibition (%)” value is reported as 8.15% and the AC50 is reported as 50.6 µM.
In the case of `Cc1ccccc1COc1cncc(-c2cnn(C3CCNCC3)c2)c1` [Compound 25, 3-[(2-Methylphenyl)methoxy]-5-[1-(piperidin-4-yl)-1H-pyrazol-4-yl]pyridine], the “CETSA Min Inhibition (%)” value is reported as 24.9% and the AC50 is reported as 83.6 µM.
In the case of `Clc1ccccc1COc1cncc(-c2ccn(C3CCNCC3)n2)c1` [Compound 26, 3-((2-chlorobenzyl)oxy)-5-(1-(piperidin-4-yl)-1H-pyrazol-3-yl)pyridine], the “CETSA Min Inhibition (%)” value is reported as 14.6% and the AC50 is reported as 87.4 µM.
In the case of `Clc1ccccc1COc1cncc(-n2ccc(C3CCNCC3)n2)c1` [Compound 27, 3-((2-chlorobenzyl)oxy)-5-(3-(piperidin-4-yl)-1H-pyrazol-1-yl)pyridine], the “CETSA Min Inhibition (%)” value is reported as 10.1% and the AC50 is reported as 57.1 µM.
With `Clc1ccccc1COc1cncc(-n2cc(C3CCNCC3)cn2)c1` [Compound 28, 3-((2-chlorobenzyl)oxy)-5-(4-(piperidin-4-yl)-1H-pyrazol-1-yl)pyridine] the “CETSA Min Inhibition (%)” value was 5.98% and the AC50 was 55.5 µM.
In the case of `Clc1ccccc1COc1cccc(-c2cnn(C3CCNCC3)c2)c1` [Compound 29, 4-(4-(3-((2-chlorobenzyl)oxy)phenyl)-1H-pyrazol-1-yl)piperidine], the “CETSA Min Inhibition (%)” value is reported as 28.4% and the AC50 is reported as 55 µM.
